In article PMC8907207, “Multiplex quantification of C-terminal alpha-1-antitrypsin peptides provides a novel approach for characterizing systemic inflammation” (Scientific Reports, 2022):
Ends that are not written are not given here.

Assays:
[1] = Freeze/thaw stability of QC samples; assay type: in vitro ADME; settings: QC in 70 g/L albumin in PBS, two cycles of freezing and thawing, LC-MS/MS
Description: (§1) Stability of analytes in processed samples was determined at six independent days for a time span of 20 h in the autosampler. Deviations of standing samples to freshly measured samples were below 19% at the LLOQ and below 9% for other QC levels for each analyte, respectively (Additional file 4). Stability of analytes in biological matrix was determined by consecutive cycles of freezing and thawing as well as extended intervals at room temperature from thawing to processing (approximately one hour).
(§2) Lyophilized authentic peptide standards were dissolved and diluted in a 70 g/L Albumin (from human serum, lyophilized, ≥ 99%, Sigma-Aldrich) in PBS (Sigma-Aldrich, St. Louis, MO, USA) solution. Internal standards C37^IS and C42^IS were dissolved in Milli-Q water (Millipore, Brussels, Belgium) containing 0.1% (v/v) formic acid (≥ 95%, Sigma-Aldrich) whereas C22^IS was only dissolved in ultrapure water. Mixtures of CAAPs used as calibration standards (calibrants) and quality control samples (QCs) were prepared as stock solution to a final concentration of 14 µM, respectively, (expect C40^SNP which was 5 µM) with subsequent serial dilutions. Calibrants and QCs were obtained from separate serial dilutions. Internal standard solution was prepared by adding equal volumes of each IS yielding a final concentration of 0.8 µM, respectively. All samples used for method development and validation were prepared and stored in 0.5 mL Protein LoBind Tubes (Eppendorf AG, Hamburg, Germany) in aliquots at − 80 °C until use.
(§3) Working range of calibrants was defined based on CAAPs detected in samples from healthy donors (set to approximate lower limit of quantification) and in samples from septic patients (set to middle to high calibration range) which were re-analyzed from a previously work[46]. Nine calibrants were used in total ranging from 0.01 µM to 1.5 µM thereby covering more than two orders of magnitude in concentration. Linearity was assessed determining mean linear regression coefficients of each calibration curve from 0.01 to 1.5 µM in eight independent analytical runs. However, respective LLOQs (lower limit of quantification) and ULOQs (upper limit of quantification) were defined individually based on natural occurrence (see above) and results from validation parameter directly affected individual working ranges (carry-over, specificity). Four QC samples were prepared and measured in total (QC1, QC2, QC3, and QC4) to cover the entire range of calibration. However, three QCs for each of the respective analytes were used for method validation. Carry-over was determined measuring pure albumin solutions prepared without internal standards (but equal amount and concentration of water/formic acid solution as regular internal standard solution, “blank albumin sample”) directly after the respective highest calibrants. Peak areas were compared to peak areas from respective LLOQ samples (prepared with regular internal standard solution). Specificity was assessed using single compounds at respective highest calibrant level which were prepared and calculated as described for carry-over. The specificity of analytes towards internal standards was determined using pure albumin solution with internal standard (“zero albumin sample”). Accuracy and precision was determined by back-calculated concentrations from repeated measurements of the same QC samples during one analytical run (within-run repeatability, n = 5) and from freshly prepared samples during five independent analytical runs (between-run, n = 5). Due to the unavailability of analyte-free biological matrix, selectivity of analytes were assessed in pure albumin solution containing internal standards. Matrix effects were determined calculating recovery rates and precision of each compound in human blood samples. Direct comparison between different anticoagulants (EDTA, lithium-heparin) and serum was performed using whole blood from the same human donor. […]

[2] = Benchtop stability of QC samples at room temperature; assay type: in vitro ADME; settings: QC in 70 g/L albumin in PBS, 60 min. at room temperature, LC-MS/MS
Description: as §1, §2, §3

[3] = QC2 (0.025 µM; C40^SNP see Table 1)
[4] = QC3 (0.3 µM; C40^SNP 0.1073 µM)

For “SIPPEVKFNKPFVFLMIDQNTKSPLFMGKVVNPTQK [C36^SNP]”, the freeze/ thaw stability, accuracy (mean of n=3) [1, 3] was 104%, the “freeze/ thaw stability, deviation from freshly processed QCs (mean of n=3)” value (from here on “freeze/ thaw stability, deviation”) [1, 3] was 2% and the freeze/ thaw stability, accuracy (mean of n=3) [1, 4] was 99%. For the same sequence, the “freeze/ thaw stability, deviation” value [1, 4] was -2%, the benchtop stability, accuracy (mean of n=3) [2, 3] was 101% and the “benchtop stability, deviation from freshly processed QCs (mean of n=3)” value (from here on “benchtop stability, deviation”) [2, 3] was -1%. The benchtop stability, accuracy (mean of n=3) [2, 4] was 98% and the “benchtop stability, deviation” value [2, 4] was -2%.
For “SIPPEVKFNKPFVFLMIEQNTKSPLFMGKVVNPTQK [C36^WT]”, the freeze/ thaw stability, accuracy (mean of n=3) [1, 3] was 106%, the “freeze/ thaw stability, deviation” value [1, 3] was 4% and the freeze/ thaw stability, accuracy (mean of n=3) [1, 4] was 98%. For the same sequence, the “freeze/ thaw stability, deviation” value [1, 4] was -1%, the benchtop stability, accuracy (mean of n=3) [2, 3] was 106% and the “benchtop stability, deviation” value [2, 3] was 4%. The benchtop stability, accuracy (mean of n=3) [2, 4] was 98% and the “benchtop stability, deviation” value [2, 4] was -1%.
